Data as given in patent US6500853B1, “Inhibitors of phospholipase enzymes” (Genetics Institute, LLC, priority 1998, dated 2002).
Values belong to the molecule of their own block, whether it stands above or below them.

Experiments:
[1] = target: T1, cPLA2 (Homo sapiens, UniProt P47712); assay: Coumarin Assay (cPLA2 inhibition); format: biochemical; conditions: read-out: PERCENT INHIBITION @; for inhibition at 10.5 µM: CONCENTRATION 10.5 micromolar
T1 sequence (P47712 1-749): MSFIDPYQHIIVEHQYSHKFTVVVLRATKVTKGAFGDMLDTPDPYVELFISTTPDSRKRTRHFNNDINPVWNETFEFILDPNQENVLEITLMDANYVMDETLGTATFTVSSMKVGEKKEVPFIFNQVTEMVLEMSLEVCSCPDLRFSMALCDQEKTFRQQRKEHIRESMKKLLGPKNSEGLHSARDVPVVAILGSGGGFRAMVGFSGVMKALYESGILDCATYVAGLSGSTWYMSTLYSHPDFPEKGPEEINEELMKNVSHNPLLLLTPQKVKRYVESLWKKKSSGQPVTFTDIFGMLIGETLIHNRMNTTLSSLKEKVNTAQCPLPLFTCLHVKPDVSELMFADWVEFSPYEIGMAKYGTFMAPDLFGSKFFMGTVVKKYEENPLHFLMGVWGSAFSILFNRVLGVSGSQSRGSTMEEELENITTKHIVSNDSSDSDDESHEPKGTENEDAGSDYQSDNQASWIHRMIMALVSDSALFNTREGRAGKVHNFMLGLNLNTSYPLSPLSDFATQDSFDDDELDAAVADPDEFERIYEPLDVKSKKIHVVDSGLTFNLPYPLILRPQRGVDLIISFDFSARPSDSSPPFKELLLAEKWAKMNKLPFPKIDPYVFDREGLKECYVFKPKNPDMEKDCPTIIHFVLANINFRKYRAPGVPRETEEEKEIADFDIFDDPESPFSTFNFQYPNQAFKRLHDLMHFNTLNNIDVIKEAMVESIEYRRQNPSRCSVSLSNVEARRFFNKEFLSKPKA
Method in brief: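 Percent inhibition at the stated concentration, from the rate of 460 nm emission rise (360 nm excitation) per minute. Reaction started by adding 4 μg enzyme to compound and 60 μM 7-hydroxycoumarinyl 6-heptenoate in Hepes buffer pH 7.5 with 1 mM EDTA.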

[2] = system: Rat Carrageenan-Induced Footpad Edema; assay: Rat Carrageenan-Induced Footpad Edema Test; format: in vivo, male Sprague Dawley rats; conditions: Rattus norvegicus, po, 3 h, PO, footpad volume 3 hours after carrageenan, read-out: PERCENT INHIBITION

Structure (SMILES): COc1cc(C(=O)O)ccc1Cc1cn(C(c2ccccc2)c2ccccc2)c2ccc(NS(=O)(=O)c3sc(NC(C)=O)nc3C)cc12 [Example 90, 4-{[5-({[2-(acetylamino)-4-methyl-1,3-thiazol-5-yl]sulfonyl}amino)-1-benzhydryl-1H-indol-3-yl]methyl}-3-methoxybenzoic acid]
- inhibition at 10.2 µM ([1]; CONCENTRATION 10.2 micromolar): 50%
- inhibition at 10.5 µM [1]: 50%
- inhibition in vivo at 2 mg/kg [2]: -0.18%
- inhibition in vivo at 10 mg/kg [2]: 2.7%

Structure (SMILES): COc1cc(C(=O)O)ccc1Cc1cn(C(c2ccccc2)c2ccccc2)c2ccc(NS(=O)(=O)c3ccc(Cl)c([N+](=O)[O-])c3)cc12 [Example 91, 4-[(1-benzhydryl-5-{[(4-chloro-3-nitrophenyl)sulfonyl]amino}-1H-indol-3-yl)methyl]-3-methoxybenzoic acid]
- inhibition at 3.8 µM ([1]; CONCENTRATION 3.8 micromolar): 50%
- inhibition at 4.25 µM ([1]; CONCENTRATION 4.25 micromolar): 50%
- inhibition in vivo at 2 mg/kg [2]: 13.5%
- inhibition in vivo at 10 mg/kg [2]: 14.7%

Structure (SMILES): COc1cc(C(=O)O)ccc1Cc1cn(C(c2ccccc2)c2ccccc2)c2ccc(NS(=O)(=O)c3ccc(OC(F)(F)F)cc3)cc12 [Example 93, 4-{[1-benzhydryl-5-({[4-(trifluoromethoxy)phenyl]sulfonyl}amino)-1H-indol-3-yl]methyl}-3-methoxybenzoic acid]
- inhibition at 4.2 µM ([1]; CONCENTRATION 4.2 micromolar): 50%
- inhibition at 4.9 µM ([1]; CONCENTRATION 4.9 micromolar): 50%
- inhibition in vivo at 2 mg/kg [2]: -3.02%
- inhibition in vivo at 10 mg/kg [2]: 9.91%

Structure (SMILES): COc1cc(C(=O)O)ccc1Cc1cn(C(c2ccccc2)c2ccccc2)c2ccc(NS(=O)(=O)c3c(C)nn(C)c3Cl)cc12 [Example 95, 4-[(1-benzhydryl-5-{[(5-chloro-1,3-dimethyl-1H-pyrazol-4-yl)sulfonyl]amino}-1H-indol-3-yl)methyl]-3-methoxybenzoic acid]
- inhibition at 11.5 µM ([1]; CONCENTRATION 11.5 micromolar): 50%
- inhibition at 13 µM ([1]; CONCENTRATION 13 micromolar): 50%
- inhibition in vivo at 2 mg/kg [2]: 14.9%
- inhibition in vivo at 10 mg/kg [2]: 23.2%

Structure (SMILES): COc1cc(C(=O)O)ccc1Cc1cn(C(c2ccccc2)c2ccccc2)c2ccc(NS(=O)(=O)c3c(C)noc3C)cc12 [Example 96, 4-[(1-benzhydryl-5-{[(3,5-dimethyl-4-isoxazolyl)sulfonyl]amino}-1H-indol-3-yl)methyl]-3-methoxybenzoic acid]
- inhibition at 8 µM ([1]; CONCENTRATION 8 micromolar): 50%
- inhibition at 10.5 µM [1]: 50%
- inhibition in vivo at 2 mg/kg [2]: 29.4%
- inhibition in vivo at 10 mg/kg [2]: 22%

Now from value to molecule, other results behind:

- inhibition at 38 µM ([1]; CONCENTRATION 38 micromolar): 50%
- inhibition at 42.5 µM ([1]; CONCENTRATION 42.5 micromolar): 50%
Structure (SMILES): CS(=O)(=O)NC(=O)/C=C/c1cn(C(c2ccccc2)c2ccccc2)c2ccc([N+](=O)[O-])cc12 [Example 87B, N-((E)-3-{1-benzhydryl-5-nitro-1H-indol-3-yl}-2-propenoyl)methanesulfonamide]
- inhibition in vivo at 3 mg/kg [2]: 17.9%
- inhibition in vivo at 10 mg/kg [2]: 31.4%

- inhibition at 4.4 µM ([1]; CONCENTRATION 4.4 micromolar): 50%
- inhibition at 4.8 µM ([1]; CONCENTRATION 4.8 micromolar): 50%
Structure (SMILES): COc1cc(C(=O)O)ccc1Cc1cn(C(c2ccccc2)c2ccccc2)c2ccc(NS(=O)(=O)c3ccc(C(F)(F)F)cc3)cc12 [Example 89, 4-{[1-benzhydryl-5-({[4-(trifluoromethyl)phenyl]sulfonyl}amino)-1H-indol-3-yl]methyl}-3-methoxybenzoic acid]
- inhibition in vivo at 2 mg/kg [2]: 14.3%
- inhibition in vivo at 10 mg/kg [2]: 16.4%

- inhibition at 7 µM ([1]; CONCENTRATION 7 micromolar): 50%
- inhibition at 7.5 µM ([1]; CONCENTRATION 7.5 micromolar): 50%
Structure (SMILES): COc1cc(C(=O)O)ccc1Cc1cn(C(c2ccccc2)c2ccccc2)c2ccc(NS(=O)(=O)c3ccccc3C)cc12 [Example 94, 4-[(1-benzhydryl-5-{[(2-methylphenyl)sulfonyl]amino}-1H-indol-3-yl)methyl]-3-methoxybenzoic acid]
- inhibition in vivo at 2 mg/kg [2]: 19%
- inhibition in vivo at 3 mg/kg [2]: 3.13%
